This note sets out measurements from patent US6916798B2, “Inhibitors of GSK-3 and uses thereof” (Vertex Pharmaceuticals Incorporated, priority 2001, dated 2005).

Common to all, as to type: biochemical
One test deals with T1, GSK-3β (AA 1-420) (Homo sapiens, UniProt P49841).
T1 construct: GSK-3β (AA 1-420)
Nature of the test: Ki determination for the inhibition of GSK-3, standard coupled enzyme system. Conditions: 20 μM ATP, 300 μM peptide, 20 nM GSK-3β, 30° C.; read-out: Ki values for GSK-3. On the procedure:
Final substrate concentrations in the assay were 20 μM ATP (Sigma Chemicals, St Louis, Mo.) and 300 μM peptide (HSSPHQS(PO3H2)EDEEE, American Peptide, Sunnyvale, Calif.). Reactions were carried out at 30° C. and 20 nM GSK-3β. Final concentrations of the components of the coupled enzyme system were 2.5 mM phosphoenolpyruvate, 300 μM NADH, 30 μg/ml pyruvate kinase and 10 μg/ml lactate dehydrogenase.
An assay stock buffer solution was prepared containing all of the reagents listed above with the exception of ATP and the test compound of interest. The assay stock buffer solution (175 μl) was incubated in a 96 well plate with 5 μl of the test compound of interest at final concentrations spanning 0.002 μM to 30 μM at 30 ° C. for 10 min. […] The reaction was initiated by the addition of 20 μl of ATP (final concentration 20 μM). Rates of reaction were obtained using a Molecular Devices Spectramax plate reader (Sunnyvale, Calif.) over 10 min at 30° C. The Ki values were determined from the rate data as a function of inhibitor concentration.

Test [1] deals with T2, CDK-2/Cyclin A (Homo sapiens, UniProt P24941). Nature of the test: Inhibition of CDK-2, standard coupled enzyme assay. The note with it: for inhibition at 2 µM: 2 μM compound; for inhibition at 10 µM: read-out: CDK-2 % inhibition @ 10 μM, 10 μM compound.
The next test concerns the target T3, Aurora-2 (Homo sapiens, UniProt O14965).
T3 sequence (O14965 1-403): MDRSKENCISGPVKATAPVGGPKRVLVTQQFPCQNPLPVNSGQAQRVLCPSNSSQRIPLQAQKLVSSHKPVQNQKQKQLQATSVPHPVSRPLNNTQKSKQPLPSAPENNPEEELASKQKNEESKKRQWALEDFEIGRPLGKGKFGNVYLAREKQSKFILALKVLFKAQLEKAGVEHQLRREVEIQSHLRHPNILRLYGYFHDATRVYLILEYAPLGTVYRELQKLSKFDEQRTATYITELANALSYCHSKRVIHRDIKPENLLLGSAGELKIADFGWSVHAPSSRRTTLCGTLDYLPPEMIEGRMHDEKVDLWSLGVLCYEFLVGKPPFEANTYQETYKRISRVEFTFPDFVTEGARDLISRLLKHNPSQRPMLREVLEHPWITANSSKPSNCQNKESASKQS
Briefly: Ki determination for the inhibition of Aurora-2, standard coupled enzyme assay. The note with it: 70 nM Aurora-2, 800 μM peptide LRRASLG, 30° C. On the procedure:
Compounds were screened in the following manner for their ability to inhibit Aurora-2 using a standard coupled enzyme assay (Fox et al. (1998) Protein Sci. 7, 2249).
(§1) To an assay stock buffer solution containing 0.1M HEPES 7.5, 10 mM MgCl2, 1 mM DTT, 25 mM NaCl, 2.5 mM phosphoenolpyruvate, […], 30 mg/ml pyruvate kinase, 10 mg/ml lactate dehydrogenase, 40 mM ATP, and 800 μM peptide (LRRASLG, American Peptide, Sunnyvale, Calif.) was added a DMSO solution of a compound of the present invention to a final concentration of 30 μM. The resulting mixture was incubated at 30° C. for 10 min. The reaction was initiated by the addition of 10 μL of Aurora-2 stock solution to give a final concentration of 70 nM in the assay. The rates of reaction were obtained by monitoring absorbance at 340 nm over a 5 minute read time at 30° C. using a BioRad Ultramark plate reader (Hercules, Calif.). The Ki values were determined from the rate data as a function of inhibitor concentration.

In test [2] the target is T2, CDK-2/Cyclin A. Briefly: Inhibition of CDK-2, standard coupled enzyme assay. The note with it: 25 nM CDK-2/Cyclin A, 100 μM peptide, 30° C. The protocol: Compounds were screened in the following manner for their ability to inhibit CDK-2 using a standard coupled enzyme assay (Fox et al (1998) Protein Sci 7, 2249).
as §1, with “[…], […]” for “dehydrogenase, 40”, “and 100” for “and 800”, “peptide ([…],” for “peptide (LRRASLG,”, “of CDK-2/Cyclin A” for “of Aurora-2”, “of 25” for “of 70”, “a 5-minute” for “a 5 minute”

T1 sequence (P49841 whole entry, the tested form may be a part): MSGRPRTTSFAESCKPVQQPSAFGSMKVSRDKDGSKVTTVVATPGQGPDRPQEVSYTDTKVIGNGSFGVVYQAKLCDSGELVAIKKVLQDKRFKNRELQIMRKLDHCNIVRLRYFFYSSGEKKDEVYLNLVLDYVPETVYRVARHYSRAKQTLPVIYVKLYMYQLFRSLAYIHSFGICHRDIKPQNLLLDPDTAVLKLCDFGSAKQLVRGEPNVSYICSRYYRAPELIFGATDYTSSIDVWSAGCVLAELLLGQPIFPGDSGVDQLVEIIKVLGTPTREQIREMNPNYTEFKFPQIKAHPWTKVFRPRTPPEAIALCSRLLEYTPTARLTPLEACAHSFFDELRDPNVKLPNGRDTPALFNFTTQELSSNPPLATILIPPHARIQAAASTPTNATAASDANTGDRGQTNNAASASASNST

As to `COc1ccc(C2=NNC(=O)C2=NNc2ccc(Cl)cc2)cc1OC` [Compound 44], the Ki at GSK-3β (AA 1-420) was under 100 nM. Moreover, on CDK-2/Cyclin A [1], at 2 µM the inhibition was 87% and the inhibition at 10 µM is 94%.

`COc1ccc(NN=C2C(=O)NN=C2c2ccc(OC)cc2)cc1` [Compound 46]: on GSK-3β (AA 1-420), the Ki was under 100 nM. This compound also displayed a Ki on Aurora-2 of 100 to 1000 nM. In addition, on CDK-2/Cyclin A [1], the inhibition at 2 µM was 82% and the inhibition at 10 µM came out at 95%.

With `CCN(CC)c1ccc(NN=C2C(=O)NN=C2c2ccc(OCc3ccccc3)c(OC)c2)cc1` [Compound 117, 5-(4-Benzyloxy-3-methoxy-phenyl)-4-[(4-diethylamino-phenyl)-hydrazono]-2,4-dihydro-pyrazol-3-one], the Ki was in the range of 100 to 1000 nM at Aurora-2 and 1 to 20 µM at CDK-2/Cyclin A [2].

Turning to `CCN(CCO)c1ccc(NN=C2C(=O)NN=C2c2ccc(OCc3ccccc3)c(OC)c2)cc1` [Compound 118, 5-(4-Benzyloxy-3-methoxy-phenyl)-4-({4-[ethyl-(2-hydroxy-ethyl)-amino]-phenyl}-hydrazono)-2,4-dihydro-pyrazol-3-one], the Ki was under 100 nM on Aurora-2 and 1 to 20 µM at CDK-2/Cyclin A [2].

For `COc1cc(C2=NNC(=O)C2=NNc2ccc(N3CCOCC3)cc2)ccc1OCc1ccccc1` [Compound 119, 5-(4-Benzyloxy-3-methoxy-phenyl)-4-[(4-morpholin-4-yl-phenyl)-hydrazono]-2,4-dihydro-pyrazol-3-one], the Ki on Aurora-2 was under 100 nM; on CDK-2/Cyclin A [2], 1 to 20 µM.
